{"source": "patent US5854081A", "about": "“Stable expression of human A2B adenosine receptors, and assays employing the same” (The University of Patent Foundation, priority 1996, dated 1998)", "key": {"native A2A receptors": {"test_system": "native A2A receptors", "assay": "Effect of GTPγS on agonist radioligand binding to native A2A", "parameters": "species or system human", "details": "Sf9 cell membranes"}, "A2B adenosine receptors": {"molecular_target": "T1, A2B adenosine receptors (Homo sapiens, UniProt P29275)", "T1 construct": "made in house", "T1 sequence (P29275 1-332)": "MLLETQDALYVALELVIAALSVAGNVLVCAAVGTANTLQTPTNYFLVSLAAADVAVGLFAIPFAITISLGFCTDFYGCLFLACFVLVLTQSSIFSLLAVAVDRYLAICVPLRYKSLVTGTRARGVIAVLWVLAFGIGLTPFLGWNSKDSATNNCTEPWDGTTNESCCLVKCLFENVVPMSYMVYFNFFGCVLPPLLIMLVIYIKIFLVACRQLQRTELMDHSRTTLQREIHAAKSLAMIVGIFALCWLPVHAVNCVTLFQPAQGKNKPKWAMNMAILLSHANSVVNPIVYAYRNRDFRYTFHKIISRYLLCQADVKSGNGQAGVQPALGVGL", "assay": "A2B radioligand binding assay", "details": "FIG. 6"}, "[1]": {"molecular_target": "T2, recombinant human native-A1 adenosine receptor (Homo sapiens, UniProt P30542)", "T2 sequence (P30542 1-326)": "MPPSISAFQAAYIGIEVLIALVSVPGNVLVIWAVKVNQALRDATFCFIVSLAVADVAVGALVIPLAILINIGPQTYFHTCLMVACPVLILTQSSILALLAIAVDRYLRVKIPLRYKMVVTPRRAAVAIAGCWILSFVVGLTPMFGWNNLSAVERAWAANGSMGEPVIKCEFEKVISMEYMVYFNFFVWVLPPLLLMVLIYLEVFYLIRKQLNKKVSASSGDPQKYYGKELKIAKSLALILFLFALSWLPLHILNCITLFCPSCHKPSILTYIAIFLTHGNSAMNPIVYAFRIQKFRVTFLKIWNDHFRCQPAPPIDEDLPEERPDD", "assay": "Saturation radioligand binding, native-A1 (CHO-K1 membranes)"}, "[2]": {"molecular_target": "T3, recombinant human H/F-A1 adenosine receptor (Homo sapiens, UniProt P30542)", "T3 construct": "expressed in transfected cells", "T3 sequence (P30542 with tags, fused parts or gaps)": "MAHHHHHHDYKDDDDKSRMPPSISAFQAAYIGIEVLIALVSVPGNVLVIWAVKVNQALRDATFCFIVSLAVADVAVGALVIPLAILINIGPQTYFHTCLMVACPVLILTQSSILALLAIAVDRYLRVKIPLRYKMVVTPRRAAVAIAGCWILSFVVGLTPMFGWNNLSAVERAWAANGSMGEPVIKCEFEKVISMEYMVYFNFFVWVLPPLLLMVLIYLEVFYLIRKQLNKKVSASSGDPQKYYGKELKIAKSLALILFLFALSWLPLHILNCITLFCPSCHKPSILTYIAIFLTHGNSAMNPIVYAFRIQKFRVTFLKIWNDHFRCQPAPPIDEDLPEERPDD", "assay": "Saturation radioligand binding, H/F-A1 (CHO-K1 membranes)"}, "[3]": {"molecular_target": "recombinant human native-A2A adenosine receptor (Homo sapiens, UniProt P29274)", "sequence (P29274 whole entry)": "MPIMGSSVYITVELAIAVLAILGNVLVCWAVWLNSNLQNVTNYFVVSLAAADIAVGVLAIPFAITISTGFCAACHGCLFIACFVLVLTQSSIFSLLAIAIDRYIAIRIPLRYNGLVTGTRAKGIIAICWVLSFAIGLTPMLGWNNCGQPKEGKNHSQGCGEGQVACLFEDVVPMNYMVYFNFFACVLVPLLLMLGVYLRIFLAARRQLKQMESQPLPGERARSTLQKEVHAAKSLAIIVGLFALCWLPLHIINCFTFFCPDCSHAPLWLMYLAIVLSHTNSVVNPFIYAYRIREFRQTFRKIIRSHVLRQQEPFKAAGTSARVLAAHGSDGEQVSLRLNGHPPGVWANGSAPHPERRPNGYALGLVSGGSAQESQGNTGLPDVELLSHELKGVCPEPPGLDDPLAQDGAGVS", "assay": "Competition for radioligand binding, native-A2A"}, "[4]": {"molecular_target": "recombinant human H/F-A2A adenosine receptor (Homo sapiens, UniProt P29274)", "sequence (P29274 with tags, fused parts or gaps)": "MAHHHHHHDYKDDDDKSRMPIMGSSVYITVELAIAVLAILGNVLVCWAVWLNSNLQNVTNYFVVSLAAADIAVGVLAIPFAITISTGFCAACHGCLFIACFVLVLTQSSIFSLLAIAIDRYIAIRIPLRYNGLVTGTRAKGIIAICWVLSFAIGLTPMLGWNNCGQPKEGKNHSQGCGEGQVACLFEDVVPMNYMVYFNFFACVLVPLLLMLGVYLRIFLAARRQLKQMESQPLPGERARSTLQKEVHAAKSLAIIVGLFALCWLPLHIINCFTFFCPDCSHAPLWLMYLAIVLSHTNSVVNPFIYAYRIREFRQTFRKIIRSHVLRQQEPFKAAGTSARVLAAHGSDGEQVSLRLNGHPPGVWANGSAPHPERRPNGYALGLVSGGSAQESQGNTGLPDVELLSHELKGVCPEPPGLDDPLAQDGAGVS", "assay": "Competition for radioligand binding, H/F-A2A"}, "[5]": {"molecular_target": "T2, recombinant human native-A1 adenosine receptor", "assay": "Competition for radioligand binding, native-A1", "parameters": "expressed in transfected cells", "details": "competition with 1 nM ^125 I-ABA", "method": "(§1) The experiments were performed in triplicate with 10 μg membrane protein in a total volume of 0.1 mL with 0.5 U/mL adenosine deaminase, with and without 5 mM MgCl2 for agonist and antagonist binding, respectively. […] Bmax and KD were calculated by nonlinear least squares interpolation for single or two-site binding models. K1 values for different compounds were derived from IC50 values. Data from replicate experiments were tabulated as means ± SEM.\n(§2) Twelve compounds were evaluated to determine their potencies to compete for radioligand binding to native- and H/F-A1 or A2A receptors."}, "[6]": {"molecular_target": "T3, recombinant human H/F-A1 adenosine receptor", "assay": "Competition for radioligand binding, H/F-A1", "details": "competition with 1 nM ^125 I-ABA", "method": "as §1, §2"}, "A3 AR [7]": {"test_system": "A3 AR", "assay": "A3 AR selectivity of radioligand", "format": "binding", "description": "These receptors can be labeled nonselectively by agonist radioligands that also label A1 AR."}, "A2B receptors": {"molecular_target": "T4, A2B receptors (Homo sapiens, UniProt P29275)", "T4 construct": "expressed in transfected cells; host or cells: HEK-293", "T4 sequence (P29275 1-332)": "T1 sequence (P29275 1-332)", "assay": "Inhibition of NECA-stimulated cyclic AMP accumulation in A2B transfected HEK-293 cells (Schild analysis)", "format": "cell-based", "details": "read-out: pA2 (antagonism, Schild analysis) (converted)", "description": "The radioligands used to label the A1 and A2A receptors are commonly used and are commercially available. However, there are no reports in the literature of radioligands useful for detecting A2B receptors. […] Based on this observation [^3 H]DPX was custom triiated by NEN."}, "A3 AR [8]": {"test_system": "A3 AR", "assay": "Activation of A3 AR", "details": ">μM levels"}, "[9]": {"assay": "Block of ^125 I-ABA binding to lung membranes"}, "[10]": {"molecular_target": "rat striatal A2A receptors", "details": "cited from earlier work"}, "[11]": {"test_system": "H/F-A1 adenosine receptors", "assay": "Inhibition of cyclic AMP accumulation, CHO-K1 cells with H/F-A1", "format": "cell-based, human", "protocol": "(§3) CHO-K1 cells were incubated without or with 100 mg/mL pertussis toxin. […] Five-hundred microliters of the supernatants were removed, acetylated, and assayed for cyclic AMP by automated radioimmunoassay."}, "[12]": {"test_system": "untransfected CHO-K1 cells", "assay": "Cyclic AMP levels in untransfected CHO-K1 cells", "format": "cell-based", "details": "concentrations up to 1 μM", "protocol": "as §3"}, "[13]": {"details": "competition with 70 nM [^3 H]NECA"}, "[14]": {"details": "read-out: K1, competition with 70 nM [^3 H]NECA"}, "[15]": {"details": "^125 I-ABA: high affinity sites"}}, "note": "Where two headings read alike, the source gives them in different places."}
{"smiles": "Nc1nc2c(ncn2[C@@H]2O[C@H](COP(=O)(O)OP(=O)(O)OP(O)(O)=S)[C@@H](O)[C@H]2O)c(=O)[nH]1", "note": "[GTPγS]", "values": [{"measurement": "reduction of [^3 H]CGS21680 / [^3 H]NECA binding by GTPγS", "setting": "native A2A receptors", "value": "reduced only slightly"}, {"measurement": "reduction in number of high affinity agonist (^125 I-ABA) binding sites by GTPγS", "setting": "H/F-A1 receptors", "value": "large reduction"}]}
{"smiles": "CCn1c(=O)c2[nH]c(-c3ccccc3)nc2n(CC)c1=O", "note": "[[^3 H]DPX]", "values": [{"measurement": "detection of A2B receptors by radioligand binding", "setting": "A2B adenosine receptors", "value": "first successful detection of A2B adenosine receptors by radioligand binding"}]}
{"smiles": "Nc1ccc(CNc2ncnc3c2ncn3[C@@H]2O[C@H](CO)[C@@H](O)[C@H]2O)cc1[125I]", "note": "[^125 I-ABA]", "values": [{"measurement": "Bmax", "setting": "[1]", "value": "3.5 ± 0.8", "unit": "pmol/mg protein"}, {"measurement": "Bmax", "setting": "[2]", "value": "3.3 ± 0.5", "unit": "pmol/mg protein"}]}
{"smiles": "CCCn1c(=O)c2nc(-c3ccc(OCC(=O)O)cc3)[nH]c2n(Cc2ccc(N)c(I)c2)c1=O", "note": "[1ABOPX, 3-iodoaminobenzyl-1-propyl-8-p-(oxyacetate)-phenylxanthine]", "values": [{"measurement": "NH (Hill coefficient)", "setting": "[3]; [13]", "value": "0.84 ± 0.17"}, {"measurement": "Ki", "setting": "[3]; [14]", "value": "23.7 ± 7.5", "unit": "nM"}, {"measurement": "NH (Hill coefficient)", "setting": "[4]; [13]", "value": "0.94 ± 0.14"}, {"measurement": "Ki", "setting": "[4]; [14]", "value": "22 ± 3.6", "unit": "nM"}]}
{"smiles": "Cn1c(=O)c2[nH]c(-c3ccc(S(=O)(=O)O)cc3)nc2n(C)c1=O", "note": "[8-SPT, 8-P-sulfophenyltheophylline]", "values": [{"measurement": "NH (Hill coefficient)", "setting": "[5]", "value": "0.87 ± 0.05"}, {"measurement": "NH (Hill coefficient)", "setting": "[6]", "value": 0.84}]}
{"smiles": "CCCn1c(=O)c2[nH]c(-c3ccc(OCC(=O)O)cc3)nc2n(Cc2ccc(N)c([125I])c2)c1=O", "note": "[^125 I-ABOPX]", "values": [{"measurement": "selectivity of radioligand", "setting": "A3 AR [7]", "value": "A3 AR-selective"}]}
{"smiles": "CCn1c(=O)c2[nH]c(-c3ccccc3)nc2n(CC)c1=O", "note": "[1,3-diethyl-8-phenylxanthine (DPX), 1,3-diethyl-8-phenylxanthine]", "values": [{"measurement": "Kb", "setting": "A2B receptors", "value": 30, "unit": "nM"}]}
{"smiles": "Nc1ccc(CNc2ncnc3c2ncn3[C@@H]2O[C@H](CO)[C@@H](O)[C@H]2O)cc1I", "note": "[^125 I-ABA]", "values": [{"measurement": "Kd", "setting": "[1]; [15]", "value": "102 ± 0.03", "unit": "nM"}, {"measurement": "Kd", "setting": "[2]; [15]", "value": "0.98 ± 0.16", "unit": "nM"}]}
{"smiles": "CCNC(=O)[C@H]1O[C@@H](n2cnc3c(N)nc(NCCc4ccc(CCC(=O)O)cc4)nc32)[C@H](O)[C@@H]1O", "note": "[CGS21680, 2-(r-(s-carboxyethyl)phen-ethylamino)-5'-N-ethylcarboxamidondenosine]", "values": [{"measurement": "activation of A3 AR", "setting": "A3 AR [8]", "value": "activate A3 AR"}]}
{"smiles": "CCNC(=O)[C@H]1O[C@@H](n2cnc3c(N)ncnc32)[C@H](O)[C@@H]1O", "note": "[NECA, 5'-N-ethylcarboxamidondenosine]", "values": [{"measurement": "NH (Hill coefficient)", "setting": "[5]", "value": "0.95 ± 0.09"}, {"measurement": "NH (Hill coefficient)", "setting": "[6]", "value": 0.97}]}
{"smiles": "CCCn1c(=O)c2[nH]c(-c3ccc(OCC(=O)NCCN)cc3)nc2n(CCC)c1=O", "note": "[XAC, xanthine amino congenen]", "values": [{"measurement": "NH (Hill coefficient)", "setting": "[5]", "value": "1.12 ± 0.11"}, {"measurement": "NH (Hill coefficient)", "setting": "[6]", "value": 0.96}]}
{"smiles": "CNC(=O)[C@H]1O[C@@H](n2cnc3c(NCc4cccc(I)c4)ncnc32)[C@H](O)[C@@H]1O", "note": "[IB-MECA]", "values": [{"measurement": "block of ^125 I-ABA binding to lung membranes", "setting": "[9]; concentration not given", "value": "blocked"}]}
{"smiles": "CCNC(=O)[C@H]1O[C@@H](n2cnc3c(N)nc(NCCc4ccc(CCC(=O)O)cc4)nc32)[C@H](O)[C@@H]1O", "note": "[[^3 H]CGS21680]", "values": [{"measurement": "Kd", "setting": "[10]; G protein coupled rat striatal A2A receptors", "value": 3.9, "unit": "nM"}, {"measurement": "Kd", "setting": "[10]; G protein uncoupled rat striatal A2A receptors", "value": 51, "unit": "nM"}]}
{"smiles": "CC(C)N(C)c1nc2c(N[C@@H]3CC4CC3CC4O)ncnc2n1C", "note": "(stereo partly shown) [WRC-0571]", "values": [{"measurement": "block of ^125 I-ABA binding to lung membranes", "setting": "[9]; 1 μM", "value": "not blocked"}]}
{"smiles": "Cn1c(=O)c2[nH]cnc2n(C)c1=O", "note": "[theophylline]", "values": [{"measurement": "affinity for A3 AR", "setting": "sheep A3AR", "value": "very low affinity"}, {"measurement": "affinity for A3 AR", "setting": "rat A3AR", "value": "very low affinity"}]}
{"smiles": "OC[C@H]1O[C@@H](n2cnc3c(NC4CCCC4)ncnc32)[C@H](O)[C@@H]1O", "note": "[CPA, N^6 -cyclopentyladenosine]", "values": [{"measurement": "NH (Hill coefficient)", "setting": "[5]", "value": "0.93 ± 0.16"}, {"measurement": "inhibition of cyclic AMP accumulation", "setting": "[11]", "value": "potently inhibited"}, {"measurement": "inhibition of cyclic AMP accumulation after pertussis toxin", "setting": "[11]; preincubated with pertussis toxin", "value": "abolished"}, {"measurement": "effect on cyclic AMP levels", "setting": "[12]", "value": "no effect"}, {"measurement": "NH (Hill coefficient)", "setting": "[6]", "value": 0.79}]}
